Patent US20100105655A1, “NOVEL COMPOUNDS 515” (ASTRAZENECA AB, priority 2008, published 2010)

target: T1, IGFR kinase (Homo sapiens, UniProt P08069); assay: Enzyme assay (c), IGFR kinase, Caliper LabChip; format: biochemical; conditions: 30 nM IGFR kinase, 6 uM ATP, 3 uM peptide mix; read-out: IGFR IC50
T1 construct: purchased Millipore
T1 sequence (P08069 31-1367): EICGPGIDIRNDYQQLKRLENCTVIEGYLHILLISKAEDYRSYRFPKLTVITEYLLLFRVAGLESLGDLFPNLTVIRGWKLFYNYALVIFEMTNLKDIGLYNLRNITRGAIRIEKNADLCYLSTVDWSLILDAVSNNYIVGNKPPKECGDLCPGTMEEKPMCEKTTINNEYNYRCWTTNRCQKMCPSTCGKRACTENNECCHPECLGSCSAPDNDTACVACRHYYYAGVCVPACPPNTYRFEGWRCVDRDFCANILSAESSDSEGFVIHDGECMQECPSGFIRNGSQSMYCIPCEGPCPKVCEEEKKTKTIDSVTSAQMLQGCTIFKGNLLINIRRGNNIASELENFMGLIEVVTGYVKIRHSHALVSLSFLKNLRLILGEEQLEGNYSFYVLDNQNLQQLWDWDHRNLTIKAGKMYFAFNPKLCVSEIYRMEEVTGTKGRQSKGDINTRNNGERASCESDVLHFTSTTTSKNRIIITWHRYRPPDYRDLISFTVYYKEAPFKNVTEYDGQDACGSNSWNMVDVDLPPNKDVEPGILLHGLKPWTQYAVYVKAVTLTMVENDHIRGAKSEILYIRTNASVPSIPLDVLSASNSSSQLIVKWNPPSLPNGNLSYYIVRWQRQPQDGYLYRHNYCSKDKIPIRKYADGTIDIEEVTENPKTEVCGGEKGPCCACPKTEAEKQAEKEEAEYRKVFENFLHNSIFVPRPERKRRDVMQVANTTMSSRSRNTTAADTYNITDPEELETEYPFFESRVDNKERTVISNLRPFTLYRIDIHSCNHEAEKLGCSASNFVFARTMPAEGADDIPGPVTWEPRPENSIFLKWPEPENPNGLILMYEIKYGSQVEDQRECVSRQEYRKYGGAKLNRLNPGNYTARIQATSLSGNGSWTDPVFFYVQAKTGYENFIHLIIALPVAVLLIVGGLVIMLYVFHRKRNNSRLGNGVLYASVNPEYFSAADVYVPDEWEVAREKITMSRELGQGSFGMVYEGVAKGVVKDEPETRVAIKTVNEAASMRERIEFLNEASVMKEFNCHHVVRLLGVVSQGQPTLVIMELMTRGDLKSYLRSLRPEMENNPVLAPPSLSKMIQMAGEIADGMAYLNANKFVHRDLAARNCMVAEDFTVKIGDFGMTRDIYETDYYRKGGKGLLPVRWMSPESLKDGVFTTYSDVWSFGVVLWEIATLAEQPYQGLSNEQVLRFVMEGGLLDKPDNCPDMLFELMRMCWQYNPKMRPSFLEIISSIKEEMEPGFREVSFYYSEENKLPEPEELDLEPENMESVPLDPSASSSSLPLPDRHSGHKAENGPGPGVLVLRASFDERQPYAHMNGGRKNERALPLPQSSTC

IC50 [nM] | SMILES
29 | COc1cc(N2CCN(C[C@H](C)O)CC2)ccc1Nc1ncc(C)c(-c2cnc3ccccn23)n1 [Example 104, (2S)-1-[4-[4-[(4-imidazo[1,2-a]pyridin-3-yl-5-methyl-pyrimidin-2-yl)amino]-3-methoxy-phenyl]piperazin-1-yl]propan-2-ol]
3 | COc1cc(N2CCNCC2)ccc1Nc1ncc(Cl)c(-c2cnn3ccccc23)n1 [Example 129, 5-chloro-N-(2-methoxy-4-piperazin-1-yl-phenyl)-4-pyrazolo[1,5-a]pyridin-3-yl-pyrimidin-2-amine]
43 | COc1cc(N2CCN(CCO)[C@H](C)C2)ccc1Nc1ncc(C)c(-c2cnc3ccccn23)n1 [Example 270, 2-[(2R)-4-[4-[(4-imidazo[1,2-a]pyridin-3-yl-5-methyl-pyrimidin-2-yl)amino]-3-methoxy-phenyl]-2-methyl-piperazin-1-yl]ethanol]
23 | COc1cc(N2CCN(C[C@H](O)CO)CC2)ccc1Nc1ncc(C)c(-c2cnc3ccccn23)n1 [Example 268, (2S)-3-[4-[4-[(4-imidazo[1,2-a]pyridin-3-yl-5-methyl-pyrimidin-2-yl)amino]-3-methoxy-phenyl]piperazin-1-yl]propane-1,2-diol]
6 | COc1cc(C2CCCN(C(C)=O)C2)ccc1Nc1ncc(Cl)c(-c2cnc3ccccn23)n1 (centres unmarked) [Example 3.29, 1-[3-[4-[(5-chloro-4-imidazo[1,2-a]pyridin-3-yl-pyrimidin-2-yl)amino]-3-methoxy-phenyl]-1-piperidyl]ethanone]
530 | COc1ccc(N2CC3CNCC(C2)O3)cc1Nc1ncc(Cl)c(-c2cnc3c(F)cccn23)n1 [Example 192, 5-chloro-4-(8-fluoroimidazo[1,2-a]pyridin-3-yl)-N-[2-methoxy-5-(9-oxa-3,7-diazabicyclo[3.3.1]nonan-7-yl)phenyl]pyrimidin-2-amine]
110 | COc1cc(C2CCN(C(C)=O)CC2)ccc1Nc1ncc(C#N)c(-c2cnn3ccccc23)n1 [Example 239, 2-[4-(1-acetyl-4-piperidyl)-2-methoxy-anilino]-4-pyrazolo[1,5-a]pyridin-3-yl-pyrimidine-5-carbonitrile]
12 | CC(=O)N1CCN(c2ccc(Nc3ncc(Cl)c(-c4cnc5ccccn45)n3)c(C)c2C)CC1 [Example 3.32, 1-[4-[4-[(5-chloro-4-imidazo[1,2-a]pyridin-3-yl-pyrimidin-2-yl)amino]-2,3-dimethyl-phenyl]piperazin-1-yl]ethanone]
7 | COc1cc(N2CC3CN(CCO)CC(C2)O3)ccc1Nc1ncc(Cl)c(-c2cnc3c(F)cccn23)n1 [Example 184, 2-[7-[4-[[5-chloro-4-(8-fluoroimidazo[1,2-a]pyridin-3-yl)pyrimidin-2-yl]amino]-3-methoxy-phenyl]-9-oxa-3,7-diazabicyclo[3.3.1]nonan-3-yl]ethanol]
21 | COc1cc(C(=O)N2C[C@@H]3C[C@H]2CN3C)ccc1Nc1ncc(Cl)c(-c2cnc3ccccn23)n1 [Example 31, [4-[(5-chloro-4-imidazo[1,2-a]pyridin-3-yl-pyrimidin-2-yl)amino]-3-methoxy-phenyl]-[(1S,4S)-5-methyl-2,5-diazabicyclo[2.2.1]heptan-2-yl]methanone]

More lines, now with the values behind:

SMILES | IC50 [nM]
COc1cc(N2CC3CN(C(CO)CO)CC(C2)O3)ccc1Nc1ncc(Cl)c(-c2cnn3ccccc23)n1 [Example 242, 2-[7-[4-[(5-chloro-4-pyrazolo[1,5-a]pyridin-3-yl-pyrimidin-2-yl)amino]-3-methoxy-phenyl]-9-oxa-3,7-diazabicyclo[3.3.1]nonan-3-yl]propane-1,3-diol] | 740
COc1cc(N2CCN(C[C@@H](C)O)CC2)ccc1Nc1ncc(C)c(-c2cnc3ccccn23)n1 [Example 105, (2R)-1-[4-[4-[(4-imidazo[1,2-a]pyridin-3-yl-5-methyl-pyrimidin-2-yl)amino]-3-methoxy-phenyl]piperazin-1-yl]propan-2-ol] | 26
CCN1CCN(c2ccc(Nc3ncc(F)c(-c4cnc5ccccn45)n3)c(OC)c2)CC1 [Example 120, N-[4-(4-ethylpiperazin-1-yl)-2-methoxyphenyl]-5-fluoro-4-imidazo[1,2-a]pyridin-3-ylpyrimidin-2-amine] | 128
COc1cc(N2CCN(C[C@@H](O)CO)CC2)ccc1Nc1ncc(Cl)c(-c2cnc3ccccn23)n1 [Example 53, (2R)-3-[4-[4-[(5-chloro-4-imidazo[1,2-a]pyridin-3-yl-pyrimidin-2-yl)amino]-3-methoxy-phenyl]piperazin-1-yl]propane-1,2-diol] | 8
COc1cc(N2CCN(C(CO)CO)CC2)ccc1Nc1ncc(C)c(-c2cnc3ccccn23)n1 [Example 269, 2-[4-[4-[(4-imidazo[1,2-a]pyridin-3-yl-5-methyl-pyrimidin-2-yl)amino]-3-methoxy-phenyl]piperazin-1-yl]propane-1,3-diol] | 16
COc1cc(N2CC3CN(C(=O)CO)CC(C2)O3)ccc1Nc1ncc(Cl)c(-c2cnc3c(F)cccn23)n1 [Example 212, 1-[7-[4-[[5-chloro-4-(8-fluoroimidazo[1,2-a]pyridin-3-yl)pyrimidin-2-yl]amino]-3-methoxy-phenyl]-9-oxa-3,7-diazabicyclo[3.3.1]nonan-3-yl]-2-hydroxy-ethanone] | 19
COc1cc(N2CCCOCC2)ccc1Nc1ncc(F)c(-c2cnc3ccccn23)n1 [Example 84, 5-fluoro-4-imidazo[1,2-a]pyridin-3-yl-N-[2-methoxy-4-(1,4-oxazepan-4-yl)phenyl]pyrimidin-2-amine] | 179
COc1cc(N2CCN(C(C)=O)CC2)ccc1Nc1ncc(C(F)(F)F)c(-c2cnc3ccccn23)n1 [Example 107, 1-[4-[4-[[4-imidazo[1,2-a]pyridin-3-yl-5-(trifluoromethyl)pyrimidin-2-yl]amino]-3-methoxy-phenyl]piperazin-1-yl]ethanone] | 15
COc1cc(N2CC3CN(CC(=O)N(C)C)CC(C2)O3)ccc1Nc1ncc(Cl)c(-c2cnc3c(F)cccn23)n1 [Example 205, 2-[3-[4-[[5-chloro-4-(8-fluoroimidazo[1,2-a]pyridin-3-yl)pyrimidin-2-yl]amino]-3-methoxy-phenyl]-9-oxa-3,7-diazabicyclo[3.3.1]nonan-7-yl]-N,N-dimethyl-acetamide] | 7
COc1cc(N2CCNCC2=O)ccc1Nc1ncc(Cl)c(-c2cnc3c(F)cccn23)n1 [Example 224, 1-[4-[[5-chloro-4-(8-fluoroimidazo[1,2-a]pyridin-3-yl)pyrimidin-2-yl]amino]-3-methoxy-phenyl]piperazin-2-one] | 3
COc1cc(N2CCN(C(=O)[C@@H](C)O)CC2)ccc1Nc1ncc(Cl)c(-c2cnc3ccc(F)cn23)n1 [Example 255, (2R)-1-[4-[4-[[5-chloro-4-(6-fluoroimidazo[1,2-a]pyridin-3-yl)pyrimidin-2-yl]amino]-3-methoxy-phenyl]piperazin-1-yl]-2-hydroxy-propan-1-one] | 5
COc1cc(C2CCNCC2)ccc1Nc1ncc(C)c(-c2cnn3ccccc23)n1 [Example 162, N-[2-methoxy-4-(4-piperidyl)phenyl]-5-methyl-4-pyrazolo[1,5-a]pyridin-3-yl-pyrimidin-2-amine] | 2
COc1cc(N2CCN(C(=O)N3CCOCC3)CC2)ccc1Nc1ncc(Cl)c(-c2cnc3ccccn23)n1 [Example 46, [4-[4-[(5-chloro-4-imidazo[1,2-a]pyridin-3-yl-pyrimidin-2-yl)amino]-3-methoxy-phenyl]piperazin-1-yl]-morpholino-methanone] | 13
